Test results from patent US20090239858A1, “THERAPEUTIC AMIDES” (ALLERGAN, INC., priority 2008, published 2009).

Tested on: lashes and adjacent hairs of patients
Assay: Eyelash and hair growth observed in glaucoma patients treated in one eye
Format: in vivo, human
Details: glaucoma patients treated in only one eye
Excerpt: In the course of treating patients having glaucoma, treatment may only be appropriate in one eye. […] The lash appearance on the lids of the treated eyes would have appeared quite attractive if it represented a bilateral phenomenon. As a result of its asymmetric nature, the long lashes on one side could be construed as disturbing from a cosmetic standpoint. A systemic examination was preformed as a result of the asymmetric phenomenon. It soon became apparent that this altered appearance was not an isolated finding. […] Definite differences could be identified to varying degrees in the lashes and adjacent hairs of all patients who were taking the drug on a unilateral basis for longer than 6 months.
The changes in the lashes were apparent on gross inspection in several patients once attention was focused on the issue. In those with light colored hair and lashes, the differences were only seen easily with the aid of the high magnification and lighting capabilities of the slit lamp biomicroscope. In the course of glaucoma follow-up examination, attention is generally immediately focused on the eye itself. As a result of the high power magnification needed only one eye is seen at a time and the eye is seen at a high enough power that the lashes are not in focus. […]

## CCNC(=O)CCC/C=C\C[C@@H]1[C@@H](/C=C/[C@@H](O)CCc2ccccc2)[C@H](O)C[C@@H]1O [bimatoprost]
  lash appearance in treated eye versus non-treated eye: longer, thicker, and fuller
